Reference: US20230278983A1, “INDOLE DERIVATIVES AND USES THEREOF FOR TREATING A CANCER” (Universite Claude Bernard Lyon 1, priority 2020, published 2023)
Like-named read-outs stand apart in the source and are kept apart here.

Target: CK2 (Homo sapiens (Human), UniProt P68400)
Test: Radiometric CK2 kinase assay
Format: biochemical
Conditions: for inhibition at 1 µM: compound at 1 μM; for inhibition at 0.1 µM: compound at 0.10 μM
[1] = inhibition of CK2 activity, ATP 10 μM

Chain of CK2 (P68400 whole entry): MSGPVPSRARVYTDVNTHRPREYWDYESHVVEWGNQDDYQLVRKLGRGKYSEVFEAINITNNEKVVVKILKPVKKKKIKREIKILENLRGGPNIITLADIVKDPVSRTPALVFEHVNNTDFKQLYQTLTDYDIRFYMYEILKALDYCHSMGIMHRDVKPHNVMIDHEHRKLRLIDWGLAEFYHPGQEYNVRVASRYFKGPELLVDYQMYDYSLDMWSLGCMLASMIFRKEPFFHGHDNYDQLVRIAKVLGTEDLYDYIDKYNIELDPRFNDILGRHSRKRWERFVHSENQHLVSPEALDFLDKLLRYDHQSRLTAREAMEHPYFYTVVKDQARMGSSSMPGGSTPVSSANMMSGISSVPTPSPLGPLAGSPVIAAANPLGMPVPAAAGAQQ

SMILES	IC50 [nM]	inhibition at 1 µM (ATP 10 μM) [%]	further results
CC(=O)c1[nH]c2ccc(F)cc2c1-c1cn(CC2CCN(CCNS(=O)(=O)c3ccc(-c4cccnc4F)cc3)CC2)nn1 [AB1289, N-(2-(4-((4-(2-acetyl-5-fluoro-1H-indol-3-yl)-1H-1,2,3-triazol-1-yl)methyl)piperidin-1-yl)ethyl)-4-(2-fluoropyridin-3-yl)benzenesulfonamide]			IC50 [1]: 440 nM
CC(=O)c1[nH]c2ccc(F)cc2c1-c1cn(CC2CCN(CCNS(=O)(=O)c3ccc(-c4ccccc4O)cc3)CC2)nn1 [AB1450, N-(2-(4-((4-(2-acetyl-5-fluoro-1H-indol-3-yl)-1H-1,2,3-triazol-1-yl)methyl)piperidin-1-yl)ethyl)-2′-hydroxy-[1,1′-biphenyl]-4-sulfonamide]	49		
CCc1ccc(S(=O)(=O)NCCN2CCC(Cn3cc(-c4c(C(=O)OCCC(C)C)[nH]c5ccc(F)cc45)nn3)CC2)cc1 [AB663, Isopentyl 3-(1-((1-(2-((4-ethylphenyl)sulfonamido)ethyl)piperidin-4-yl)methyl)-1H-1,2,3-triazol-4-yl)-5-fluoro-1H-indole-2-carboxylate]		11	
COCc1ccccc1-c1ccc(C(=O)N2CCC(Cn3cc(-c4c(C(=O)OCC(C)C)[nH]c5ccc(F)cc45)nn3)CC2)cc1Cl [AB681, Isobutyl 3-(1-((1-(2-chloro-2′-(methoxymethyl)-[1,1′-biphenyl]-4-carbonyl)piperidin-4-yl)methyl)-1H-1,2,3-triazol-4-yl)-5-fluoro-1H-indole-2-carboxylate]		18	
CC(C)COC(=O)c1[nH]c2ccc(F)cc2c1-c1cn(CC2CCN(CCNS(=O)(=O)N3CCC(c4ccccc4)CC3)CC2)nn1 [AB929, isobutyl 5-fluoro-3-(1-((1-(2-((4-phenylpiperidine)-1-sulfonamido)ethyl)piperidin-4-yl)methyl)-1H-1,2,3-triazol-4-yl)-1H-indole-2-carboxylate]			IC50 [1]: 58 nM
CC(C)COC(=O)c1[nH]c2ccc(F)cc2c1-c1cn(CC2CCN(CCNS(=O)(=O)c3ccc4c(c3)CCO4)CC2)nn1 [AB930, isobutyl 3-(1-((1-(2-((2,3-dihydrobenzofuran)-5-sulfonamido)ethyl)piperidin-4-yl)methyl)-1H-1,2,3-triazol-4-yl)-5-fluoro-1H-indole-2-carboxylate]		45	
CCc1ccc(S(=O)(=O)NCCN2CCC(Cn3cc(-c4c(C(=O)NCCC(C)C)[nH]c5ccc(F)cc45)nn3)CC2)cc1 [AB670, 3-(1-((1-(2-((4-Ethylphenyl)sulfonamido)ethyl)piperidin-4-yl)methyl)-1H-1,2,3-triazol-4-yl)-5-fluoro-N-isopentyl-1H-indole-2-carboxamide]		14	
CC(C)COC(=O)c1[nH]c2ccc(F)cc2c1-c1cn(CC2CCN(CCNS(=O)(=O)c3ccc(C(C)C)cc3)CC2)nn1 [AB603, Isobutyl 5-fluoro-3-(1-((1-(2-((4-isopropylphenyl)sulfonamido)ethyl)piperidin-4-yl)methyl)-1H-1,2,3-triazol-4-yl)-1H-indole-2-carboxylate]	150		Competition with peptide substrate: not competitive with the peptide substrate; Inhibition of CK2a versus CK2 holoenzyme (CK2a compared with CK2 holoenzyme): not inhibited to the same extent
Cc1noc(C)c1-c1ccc(S(=O)(=O)NCCN2CCC(Cn3cc(-c4c(C(=O)C5CC5)[nH]c5ccc(F)cc45)nn3)CC2)cc1 [AB1285, N-(2-(4-((4-(2-(cyclopropanecarbonyl)-5-fluoro-1H-indol-3-yl)-1H-1,2,3-triazol-1-yl)methyl)piperidin-1-yl)ethyl)-4-(3,5-dimethylisoxazol-4-yl)benzenesulfonamide]	930		
CC(C)CCOc1ccccc1-c1ccc(C(=O)N2CCC(Cn3cc(-c4c(C(=O)OCC(C)C)[nH]c5ccc(F)cc45)nn3)CC2)cc1Cl [AB743, Isobutyl 3-(1-((1-(2-chloro-2′-(isopentyloxy)-[1,1′-biphenyl]-4-carbonyl)piperidin-4-yl)methyl)-1H-1,2,3-triazol-4-yl)-5-fluoro-1H-indole-2-carboxylate]		9	
CCOC(=O)c1[nH]c2ccc(Cl)cc2c1-c1cn(CC2CCN(CCNS(=O)(=O)c3ccc(C(C)C)cc3)CC2)nn1 [AB582, Ethyl 5-chloro-3-(1-((1-(2-((4-isopropylphenyl)sulfonamido)ethyl)piperidin-4-yl)methyl)-1H-1,2,3-triazol-4-yl)-1H-indole-2-carboxylate]	1250		
CCc1ccc(S(=O)(=O)NCCN2CCC(Cn3cc(-c4c(C(=O)OC(C)C)[nH]c5ccc(F)cc45)nn3)CC2)cc1 [AB577, Isopropyl 3-(1-((1-(2-((4-ethylphenyl)sulfonamido)ethyl)piperidin-4-yl)methyl)-1H-1,2,3-triazol-4-yl)-5-fluoro-1H-indole-2-carboxylate]	2300		
CC(=O)c1[nH]c2ccc(F)cc2c1-c1cn(CC2CCN(CCNS(=O)(=O)Cc3ccc(C(F)(F)F)cc3)CC2)nn1 [AB1315, N-(2-(4-((4-(2-acetyl-5-fluoro-1H-indol-3-yl)-1H-1,2,3-triazol-1-yl)methyl)piperidin-1-yl)ethyl)-1-(4-(trifluoromethyl)phenyl)methanesulfonamide]			inhibition at 0.1 µM (ATP 10 μM): 27%
CCc1ccc(S(=O)(=O)NCCN2CCC(Cn3cc(-c4c(C(=O)OCCN)[nH]c5ccc(F)cc45)nn3)CC2)cc1 [AB614, 2-Aminoethyl 3-(1-((1-(2-((4-ethylphenyl)sulfonamido)ethyl)piperidin-4-yl)methyl)-1H-1,2,3-triazol-4-yl)-5-fluoro-1H-indole-2-carboxylate]			IC50 [1]: 3240 nM
CC(C)COC(=O)c1[nH]c2ccc(F)cc2c1-c1cn(CC2CCN(CCNS(=O)(=O)c3ccc(C4=CCC(F)(F)CC4)cc3)CC2)nn1 [AB1070, isobutyl 3-(1-((1-(2-((4′,4′-difluoro-2′,3′,4′,5′-tetrahydro-[1,1′-biphenyl])-4-sulfonamido)ethyl)piperidin-4-yl)methyl)-1H-1,2,3-triazol-4-yl)-5-fluoro-1H-indole-2-carboxylate]	200		
CC(C)COC(=O)c1[nH]c2ccc(F)cc2c1-c1cn(CC2CCN(CCNS(=O)(=O)c3ccc(-c4ccc(C#N)cc4)cc3)CC2)nn1 [AB1134, isobutyl 3-(1-((1-(2-((4′-cyano-[1,1′-biphenyl])-4-sulfonamido)ethyl)piperidin-4-yl)methyl)-1H-1,2,3-triazol-4-yl)-5-fluoro-1H-indole-2-carboxylate]			inhibition at 0.1 µM (ATP 10 μM): 5%
CC(C)CC(=O)c1[nH]c2ccc(F)cc2c1-c1cn(CC2CCN(CCNS(=O)(=O)c3ccc(-c4cccnc4Cl)cc3)CC2)nn1 [AB1284, 4-(2-chloropyridin-3-yl)-N-(2-(4-((4-(5-fluoro-2-(3-methylbutanoyl)-1H-indol-3-yl)-1H-1,2,3-triazol-1-yl)methyl)piperidin-1-yl)ethyl)benzenesulfonamide]			inhibition at 0.1 µM (ATP 10 μM): 15%
CC(=O)c1[nH]c2ccc(F)cc2c1-c1cn(CC2CCN(CCNS(=O)(=O)c3ccc(-c4c(C)noc4C)cc3)CC2)nn1 [AB1286, N-(2-(4-((4-(2-acetyl-5-fluoro-1H-indol-3-yl)-1H-1,2,3-triazol-1-yl)methyl)piperidin-1-yl)ethyl)-4-(3,5-dimethylisoxazol-4-yl)benzenesulfonamide]	430		
O=S(=O)(NCCN1CCC(Cn2cc(-c3c(CO)[nH]c4ccc(F)cc34)nn2)CC1)c1ccc(-c2c(O)cccc2F)cc1 [AB1406, 2′-fluoro-N-(2-(4-((4-(5-fluoro-2-(hydroxymethyl)-1H-indol-3-yl)-1H-1,2,3-triazol-1-yl)methyl)piperidin-1-yl)ethyl)-6′-hydroxy-[1,1′-biphenyl]-4-sulfonamide]			inhibition at 0.1 µM (ATP 10 μM): 29%
CC(C)COC(=O)c1[nH]c2ccc(Cl)cc2c1-c1cn(CC2CCN(CCNS(=O)(=O)c3ccc4ccccc4c3)CC2)nn1 [AB599, Isobutyl 5-chloro-3-(1-((1-(2-(naphthalene-2-sulfonamido)ethyl)piperidin-4-yl)methyl)-1H-1,2,3-triazol-4-yl)-1H-indole-2-carboxylate]	3200		
CC(C)COC(=O)c1[nH]c2ccc(F)cc2c1-c1cn(CC2CCN(CCNS(=O)(=O)c3ccc(OC(F)(F)F)cc3)CC2)nn1 [AB912, isobutyl 5-fluoro-3-(1-((1-(2-((4-(trifluoromethoxy)phenyl)sulfonamido)ethyl)piperidin-4-yl)methyl)-1H-1,2,3-triazol-4-yl)-1H-indole-2-carboxylate]	300		
CC(=O)c1[nH]c2ccc(F)cc2c1-c1cn(CC2CCN(CCNS(=O)(=O)c3ccc(-c4ccccc4C(F)(F)F)cc3)CC2)nn1 [AB1394, N-(2-(4-((4-(2-acetyl-5-fluoro-1H-indol-3-yl)-1H-1,2,3-triazol-1-yl)methyl)piperidin-1-yl)ethyl)-2′-(trifluoromethyl)-[1,1′-biphenyl]-4-sulfonamide]	23		
CC(C)COC(=O)c1[nH]c2ccc(F)cc2c1-c1cn(CC2CCN(Cc3ccc(-c4cccc(C(C)C)c4)c(Cl)c3)CC2)nn1 [AB758, Isobutyl 3-(1-((1-((2-chloro-3′-isopropyl-[1,1′-biphenyl]-4-yl)methyl)piperidin-4-yl)methyl)-1H-1,2,3-triazol-4-yl)-5-fluoro-1H-indole-2-carboxylate]		17	
CC(C)COC(=O)c1[nH]c2ccc(F)cc2c1-c1cn(CC2CCN(CCNS(=O)(=O)c3ccc(Cl)cc3)CC2)nn1 [AB498, Isobutyl 3-(1-((1-(2-((4-chlorophenyl)sulfonamido)ethyl)piperidin-4-yl)methyl)-1H-1,2,3-triazol-4-yl)-5-fluoro-1H-indole-2-carboxylate]	830		
CC(C)COC(=O)c1[nH]c2ccc(F)cc2c1-c1cn(CC2CCN(C(=O)c3ccc(-c4cccc5[nH]ccc45)c(C(F)(F)F)c3)CC2)nn1 [AB756, Isobutyl 3-(1-((1-(4-(1H-indol-4-yl)-3-(trifluoromethyl)benzoyl)piperidin-4-yl)methyl)-1H-1,2,3-triazol-4-yl)-5-fluoro-1H-indole-2-carboxylate]		19	
CC(C)COC(=O)c1[nH]c2ccc(F)cc2c1-c1cn(CC2CCN(Cc3ccc(Oc4cccc(C(C)C)c4)c(C(C)C)c3)CC2)nn1 [AB713, Isobutyl 5-fluoro-3-(1-((1-(3-isopropyl-4-(3-isopropylphenoxy)benzyl)piperidin-4-yl)methyl)-1H-1,2,3-triazol-4-yl)-1H-indole-2-carboxylate]		5	
